# A melting point compilation (Tetko et al.; mined from patent text by program, amines drawn as free bases though some values may be those of a salt)
row,SMILES,melting point [°C]
1,CCOc1ccc(S(=O)(=O)N2CCN(C)CC2)cc1C(=O)O,201
2,Nc1cc(C(F)(F)F)cc(C(F)(F)F)n1,70.8 to 71.2
3,COc1cc(-c2cc(-c3ccccc3)c(N3CCOCC3)s2)nc(OC)c1OC,124
4,CN1C(=O)CN(C(N)=O)C(c2ccccc2)c2cc(Cl)ccc21 (configuration not stated),214 to 217
5,CCOCc1nc2c(N)nc3c(c2n1CCCCS(N)(=O)=O)CCCC3,224 to 227
6,CCOC(=O)C(NC(C)=O)(C(=O)OCC)c1ccc([N+](=O)[O-])cn1,82 to 83
7,O=C1CC(c2cccc(-c3ocnc3C(=O)NCCO)c2)=Nc2ccc(-n3cccc3)cc2N1,228 to 230
8,O=C(NCCN(Cc1ccccc1)Cc1ccccc1)C1CCN(c2c(Cl)cncc2Cl)CC1,147 to 149
9,Oc1nc2ccc3nsnc3c2nc1O,> 300
10,Clc1ccc(C=Cc2nc(CNc3ccc(CCCCn4ccnn4)cc3)co2)cc1,120 to 122
11,CCc1c(CC(=O)NCCCCCCNC(=O)Cc2ccc(OC)c(OC)c2CC)ccc(OC)c1OC,169 to 172
12,c1ccc(C(c2ccccc2)N2CCN(CCCn3c(C4CCCCC4)nc4ccccc43)CC2)cc1,115
13,CC(C)C(=O)NC1CCc2c(c3cc(C#N)ccc3n2Cc2ccccc2C(F)(F)F)C1 (configuration not stated),222 to 225
14,N#Cc1c(C(=O)O)nn(-c2ccc(Cl)cc2Cl)c1-c1ccc(Cl)cc1,132 to 137
15,Clc1ccc(-c2cc(C3=CCN(Cc4c[nH]c5ncccc45)CC3)on2)cc1,245 to 247
16,Nc1cc(Cl)c(Br)cc1[N+](=O)[O-],185 to 195
17,CC(C)(C)Sc1ccc(CC=CN(O)C(N)=O)s1,111 to 113
18,CN(Cc1cc2c3c(c1)c(=O)c(C(=O)NCc1ccc(Cl)cc1)cn3CC(=O)N2CCO)C[C@@H](O)c1ccco1,166 to 167
19,COc1cc(C(=O)N2CCN(C(=O)c3cc(OC)c(OC)c(OC)c3)C(CNC(=O)OC(C)C)C2)cc(OC)c1OC (configuration not stated),140
20,O=C(NCCN1CCC(O)(c2ccc(Cl)cc2)CC1)c1ccc(F)cc1[N+](=O)[O-],144
21,CCC(=O)Nc1cc(NC(=O)CC)cc([N+](=O)[O-])c1,197 to 198
22,O=C(OCc1ccccc1)N1CCC(NCC(O)Cn2ccnc2[N+](=O)[O-])C(O)C1 (configuration not stated),140 to 142

row,SMILES,melting point [°C]
1,O=C(C=CC=C(c1ccccc1)c1ccccc1)NCCCCCC(=O)NO,167 to 169
2,CC(C)C[C@H](NC(=O)[C@H](Cc1c[nH]c2ccccc12)NC(=O)OC(C)(C)C)C(=O)CCl,140 to 141
3,CCOC(=O)c1conc1-c1cccc(C#N)c1,135 to 137
4,CC(C)Oc1c(C(=O)O)sc2c1CS(=O)CC2 (configuration not stated),192 to 193
5,COc1ccnc(CCc2nc3cc(-c4ccc(S(=O)(=O)N5CCc6cc(OC)c(OC)cc6C5)cc4)cnc3[nH]2)c1,207 to 208
6,N#Cc1nn(-c2c(Cl)cc(C(F)(F)F)cc2Cl)c(C(O)C(F)(F)F)c1SC(F)(F)F (configuration not stated),106
7,Nc1ccccc1C(=O)C1CC1,46 to 48
8,Cc1ccccc1-c1ccc(C(=O)N2Cc3ccc(C(=O)NCc4csc(-c5ccc(Cl)cc5)n4)n3Cc3ccccc32)cc1C,61 to 64
9,O=c1[nH]c2cc(Cl)c(Cl)cc2c(O)c1-c1ccccc1,347 to 349
10,CCOC(=O)N1Cc2sc3ncn(CCN4CCN(c5ccccc5OC)CC4)c(=O)c3c2C1,153 to 155
11,COC(=O)Cc1c(-c2ccc3c(c2)OCO3)c2ccccc2n(Cc2ccccc2OC)c1=O,71 to 72
12,CC(C)(C)OC(=O)N1CC2CN(Cc3ccccc3)CC(C1)O2,100 to 102
13,CCN1CC=CC2=C1N1CN(OC)C=C1N=N2,167 to 168
14,Cc1ccccc1CC(C)(C)NC(C)(O)c1ccc(O)c(O)c1C (configuration not stated),166 to 169
15,Cc1nc(-c2ccc(F)cc2)c(CO)c(C(C)C)c1C#N,150
16,COc1ccc(N2CCN(C)[C@@H]3Cc4ccccc4[C@H]32)c(CO)c1 (relative stereo),179 to 183
17,COC(=O)OCCNC(=O)C(F)(F)Cc1c[nH]c([N+](=O)[O-])n1,50.5 to 52.5
18,c1ccc(N2CCN(CCc3cc4ccccc4[nH]3)CC2)cc1,184 to 186
19,Cc1ccc(S(=O)(=O)OCC2COc3ccc4nc(C)oc4c3O2)cc1 (configuration not stated),123
20,Cc1nccn1-c1nc(-c2ccc(Cl)cc2)c(CCCOc2ccccc2CCCO)o1,119 to 120
21,O=S1(=O)c2cccc3cccc(c23)N1CCN1CCC(CC2CNc3ccccc3C2)CC1 (configuration not stated),134

# Other lines, results leading:
row,melting point [°C],SMILES
1,145 to 149,CN(Cc1ccccc1)C1Cc2cccc3[nH]c(=O)n(c23)C1 (configuration not stated)
2,90 to 93,CN(CC(=O)c1cccn1Cc1ccc(Cl)cc1[N+](=O)[O-])Cc1ccccc1
3,282 to 286,COc1ccc(N2C(=O)N(c3cccc(C(N)=O)c3)c3nc(Nc4ccccc4)ncc3C2C)c(F)c1 (configuration not stated)
4,103 to 104,CC(C#N)(COc1ccc(Cl)cc1Cc1ccccc1)NC(=O)c1ccc(OC(F)(F)F)cc1 (configuration not stated)
5,255 to 257,CN(C)C(=O)c1ncn2c1CC(=O)N(c1ccccc1)c1cc(Cl)ccc1-2
6,178 to 179,O=C(CN1C2=NCCN2c2ccccc21)c1ccccc1
7,155 to 156,CC1=C(C(=O)c2ccc(C(F)(F)F)cc2)C(=O)C2C=CC=CC2C1=O (configuration not stated)
8,149 to 151,CCOC(=O)c1cc(-c2ccc3ccccc3c2)[nH]c1N
9,93 to 94,CC(=O)OCc1nnc(-c2ccc3occ(-c4cccc(OC(F)(F)F)c4)c3c2)o1
10,113 to 114,CC1(C)C(=O)C(c2cc(F)cc(F)c2)=C1c1ccc(S(C)(=O)=O)cc1
11,178,CCOc1cc(C)ccc1C1CCN(CCCCC(=O)Nc2ccc(-c3ccc(C(F)(F)F)cc3)cc2)CC1
12,232 to 233,CN1CC(=O)Nc2cccc(Br)c2C1=O
13,231,CCOC(=O)Cn1c2c(n(Cc3ccccc3)c(=O)c1=O)CCC1=C2C=C(N)CC1
14,135 to 137,C=CCC1C(=O)N(c2ccccc2)N(c2ccccc2)C1=O
15,189 to 192,O=C(Nc1ccc2[nH]c(C(F)(F)F)nc2c1)NC12CC3CC(CC(C3)C1)C2
16,235 to 240,CC(=O)Nc1ccc(C=CC2CSC(=O)NN2)cc1 (configuration not stated)
17,255 to 258,COc1cccc2c(=O)n(C(C)(C)C(=O)O)c(=O)[nH]c12
18,184 to 185,Clc1ccc(-c2nc3cccnc3n2Cc2ncc[nH]2)cc1
19,202 to 203,COc1c(O)cc(O)c2c(=O)cc(-c3ccccc3)oc12
20,120,CC(C)(C)OC(=O)N1C(=O)C(Br)=C(c2cn(C(=O)OC(C)(C)C)c3cc(OCc4ccccc4)ccc23)C1=O
21,118,NC(=O)Oc1cccc2ccccc12
22,208 to 210,O=C(O)C1C2CCC(O2)C1C(=O)NCCN1C(=O)NC(c2ccccc2)(c2ccccc2)C1=O (configuration not stated)
23,227 to 229,CN1CCC(C)(c2nc(-c3ccncc3)c(-c3ccc(F)cc3)[nH]2)CC1
24,142,CC1CCN(c2ccc([N+](=O)[O-])cc2C(=O)c2ccc(Br)cc2)CC1
